Reference: publication PMC11451635, “A Broad Spectrum Lasso Peptide Antibiotic Targeting the Bacterial Ribosome” (Research Square, 2024)
≈ marks a conversion by molar mass, not a printed value. Entries after “also recorded” stand apart in the source; their conditions may differ. Like-named read-outs stand apart in the source and are kept apart here. Where a SMILES comes first, the peptide text is derived from it. Bridges are numbered along the chain shown (N, C = ends).

Tests used:
[1] = system: E coli BW25113 ΔbamBΔtolC; settings: 18–22 h
HEK293 cells = assay: Cytotoxicity against human cells
[2] = system: E. coli cell-free transcription-translation system (gfp mRNA); assay: In vitro translation, GFP mRNA
[3] = system: rabbit reticulocyte lysate (luc mRNA); assay: In vitro translation in rabbit reticulocyte lysate; type: biochemical
Method: The effect of LAR on eukaryotic translation was assessed using Rabbit Reticulocyte Lysate System (L4960, Promega) programmed with firefly luciferase mRNA. In vitro reactions were assembled according to the manufacturer’s protocol in a nal volume of 10 μL supplemented with 0.02–50 μM of LAR or no antibiotic and incubated for 90 min at 30°C. After that, 2.5 μL from each reaction was mixed with 50 μl of prewarmed luciferase assay reagent, and the luminescence was measured in Infinite M200 PRO plate reader (TECAN) for 10 min at 25°C. The assay was performed in triplicate.

[4] = system: Lactobacillus plantarum GC4; assay: MIC, gut bacteria; type: cell-based; settings: column MHB; method: BHI + L-cysteine, hemin, vitamin K, anaerobic, 37 °C
Method: (§1) MICs were determined using broth microdilution method in cation-adjusted Mueller-Hinton Broth (MHBII, BD Difco) following standard procedures unless stated otherwise. Mycobacteria susceptibility was tested in Middlebrook 7H9 medium supplemented with 10% OADC Enrichment (oleic acid, bovine albumin, dextrose, and catalase) (BD Difco). The compounds (2 to 4 μl) were mixed with diluted cultures (5–7 × 10^5 cfu/mL) in MHB (196 to 198 μL) in 96-well round-bottom plates, and 2-fold serial dilutions were made. Plates were incubated at 37°C for 18–22 h, and OD600 readings were taken on Synergy Microplate Reader (Biotek). MIC was determined to be the lowest concentration of antibiotics with no visible growth. For Mycobacterial cultures, the plates were read after two to three days. Susceptibility was also assessed in MOPS minimal medium with 0.4% glucose (M2106 Teknova) and RPMI-1640 medium. Serum effects were tested in MHB with 10% or 50% fetal bovine serum (Invitrogen) or human serum (Heat Inactivated, from human male AB plasma; Sigma-Aldrich). For anaerobic conditions, E. coli was incubated in BD GasPak™ EZ pouch systems. To adjust the pH of the media, 1M NaOH or 1N HCl was used.
(§2) For MIC testing using human microbiota strains, the cultures were grown in BHI supplemented with L-cysteine (0.5g/L), Hemin (10mg/L), and Vitamin K (1mg/L) in anaerobic chambers (37 °C, 5% H2, 10% CO2, 85% N2). […]

[5] = system: Bacteroides fragilis GC73; assay: MIC, gut bacteria; type: cell-based; settings: column MHB; method: BHI + L-cysteine, hemin, vitamin K, anaerobic, 37 °C
Method: as §1, §2

E. coli ribosome = assay: Translocation inhibition assay; type: biochemical, Escherichia coli; settings: 62.5 μM LAR or 250 μM negamycin, EF-G/GTP, primer extension
bacteria (Table 1) = assay: MIC in nutrient-limited media; type: cell-based; settings: nutrient-limited media vs MHB
Method: as §1

[6] = system: common anaerobe components of the human microbiome; assay: Activity against human gut microbiome bacteria; type: cell-based; settings: BHI, anaerobic, 37 °C
Method: For MIC testing using human microbiota strains, the cultures were grown in BHI supplemented with L-cysteine (0.5g/L), Hemin (10mg/L), and Vitamin K (1mg/L) in anaerobic chambers (37 °C, 5% H2, 10% CO2, 85% N2). Candida albicans was cultivated in yeast nitrogen base (YNB) medium without amino acids (BD Difco).

[7] = system: Clostridium perfringens GC1584; settings: column MHB; method: BHI + L-cysteine, hemin, vitamin K, anaerobic, 37 °C
[8] = system: E. coli BW25113 ΔtolCΔbamB expressing various resistance genes; assay: Cross-resistance with resistance mechanisms; settings: mutations or enzymatic resistance mechanisms; Extended Data Fig. 10
E. coli BW25113 [9] = assay: Time-dependent killing; type: cell-based, Escherichia coli; settings: 10xMIC (40 μg/ml), MOPS minimal medium, 37°C
Method: (§3) E. coli BW25113 was grown overnight in 5 ml MOPS minimal medium and diluted 1:100 in 3 ml of fresh medium in 14 ml culture tubes. Cells were grown for three to four hours to reach mid-exponential phase (OD600 0.4–0.6) and treated with 10xMIC of LAR (40 μg/ml) or colistin (2.5 to 5 μg/ml) in 1 ml culture at 37°C with agitation at 250 rpm. Cultures were sampled at various times, centrifuged at 10,000 xg for 3 min, and plated on MHA plates. The number of colony forming units (cfu) was determined after incubating plates for 20–24 hr at 37°C. A time-kill assay against A. baumannii C0286 was performed in MHB. For cell lysis assay, cultures were prepared as described above. Initial OD600 was adjusted to 0.15–0.2, and 98 μl of culture was added to a 96-well plate containing 2 μl of compound. The plates were incubated with orbital shaking at maximum speed with a Synergy Microplate Reader (Biotek), and OD600 was measured over 6 h. Experiments were performed in two to three biological replicates. For colistin in cell lysis assay, clumping of cells was observed after ≈2h, leading to a false increase in OD; therefore, data for colistin was not plotted after this period. The plate was manually mixed on a vortex, and the turbidity of colistin-treated wells was confirmed.

E. coli BW25113 [10] = assay: Cell lysis assay (optical density); type: cell-based, Escherichia coli; settings: exponential E. coli culture, OD600 over 6 h
Method: as §3

E coli BW25113 ΔtolC = settings: 18–22 h
Bacillus subtilis 168 = type: cell-based
A. baumannii C0286 = assay: Neutropenic mouse thigh-infection model
E. coli SQ110DTC = assay: Selection of spontaneous rRNA resistant mutants
[11] = system: Pseudomonas aeruginosa PAO1
[12] = system: strains with odilorhabdin-resistance mutations; assay: MIC in odilorhabdin-resistance mutants; type: cell-based; settings: three of 10 known odilorhabdin-resistance mutations
Method: as §1

## CC(C)[C@H](NC(=O)CNC(=O)[C@H](CCCNC(=N)N)NC(=O)CNC(=O)[C@H](Cc1ccccc1)NC(=O)[C@H](CCCCN)NC(=O)CNC(=O)[C@@H]1CC(=O)N[C@@H](CO)C(=O)N[C@@H](CCCCN)C(=O)N[C@@H](CCCCN)C(=O)N[C@@H](CO)C(=O)N[C@@H](CCCCN)C(=O)N2CCC[C@H]2C(=O)NCC(=O)N1)C(=O)N[C@@H](CCCCN)C(=O)N[C@@H](CCCNC(=N)N)C(=O)NCC(=O)O [LAR, lariocidin] (SKKSKPGDGKFGRGVKRG-OH; lactam N-8)
[1]; MHB, 37°C
  MIC: 2 to 4 µg/mL
[1]; RPMI-1640, 37°C
  MIC: ≤0.25 µg/mL
HEK293 cells
  Cytotoxicity against human cells: no human cell toxicity; also recorded: did not display hemolytic activity or cytotoxicity against human cells
[2]; E. coli in vitro transcription-translation system, DNA or RNA
  IC50 class in words, bacterial translation: submicromolar
[2]; read-out: IC50, protein synthesis, gfp mRNA, E. coli cell-free system, real-time sfGFP fluorescence, 1 h, mean of three experiments
  IC50: 0.24 µM
[3]
  Effect on eukaryotic translation: only a marginal effect on eukaryotic translation
[3]; luc mRNA, 0.02–50 μM LAR, 90 min, 30°C, luminescence, mean of three experiments, read-out: IC50, protein biosynthesis
  IC50: 14.2 µM
[3]; ratio to E. coli system IC50
  IC50 in mammalian cell-free translation vs bacterial: ~ 58 fold
[4]
  MIC: >256 µg/mL
[5]
  MIC: >256 µg/mL
E. coli ribosome
  Inhibition of ribosome translocation: inhibits ribosome translocation; also recorded: this reaction was inhibited when LAR was present
Bacteria (Table 1)
  MIC reduction in nutrient-limited media: ≤ 128 fold
[6]
  Activity vs gut microbiome anaerobes: no activity
[7]
  MIC: >256 µg/mL
[8]
  Sensitivity to resistance mechanisms: unaffected by common resistance mechanisms; also recorded: mostly insensitive to mutations or enzymatic resistance mechanisms
E. coli BW25113 [9]
  Viable cell count / bactericidal activity: dramatically reduced the viable cell count; also recorded: exhibits bactericidal activity
E. coli BW25113 [10]
  Effect on culture optical density (lysis): did not cause a decrease in the optical density of the culture below the initial point
E coli BW25113 ΔtolC; MHB, 37°C
  MIC: 2 to 4 µg/mL
E coli BW25113 ΔtolC; RPMI-1640, 37°C
  MIC: 0.5 µg/mL (≈ 0.267 µM)
Bacillus subtilis 168
  MIC (text): 1 µg/mL (≈ 0.534 µM)
A. baumannii C0286; 50 mg kg^−1 i.p. at 1, 4, 8 and 20 h post-infection, 24 h, vs vehicle, n = 8 treated
  Reduction in bacterial burden, blood: 2 orders of magnitude
A. baumannii C0286; 50 mg kg^−1 i.p. at 1, 4, 8 and 20 h post-infection, 24 h, vs vehicle, n = 15 treated
  Reduction in bacterial burden, spleen: 2 orders of magnitude
A. baumannii C0286; 50 mg kg^−1 i.p. at 1, 4, 8 and 20 h post-infection, 24 h, vs vehicle, n = 30 treated
  Reduction in bacterial burden, thigh: 2 orders of magnitude
A. baumannii C0286; mouse model of A. baumannii infection
  In vivo activity: potent in vivo activity
A. baumannii C0286; over 48 h post-infection, 50 mg kg^−1 i.p. x4
  Survival: 100%
A. baumannii C0286; vs control mice
  Appearance of treated mice: appeared much healthier than control mice
E. coli SQ110DTC; 16S rRNA resistance mutations, Extended Data Fig. 6a
  Effect of selected rRNA substitutions on MIC: modest effects
E. coli SQ110DTC; MHB/agar, 64 μg/mL LAR (~4xMIC), 48 h, 37°C
  Frequency of resistant clones: ~ 2×10^−8
[11]
  MIC: 64 to 128 µg/mL
[12]
  Increase in LAR MIC by odilorhabdin-resistance mutations: 2–4 x
